PubChem BioAssay AID1919016 (Molecular Pharmacology Branch, DTP, NCI, 2023)

Test system: NCI-H196 complex spheroid growth, percent test/control
Assay: Anticancer human tumor NCI-H196 cell line growth inhibition [AhR];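 also: seven days of drug exposure starting three days after plating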;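 as to viability, T/C: 100% = DMSO vehicle control wells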
Settings: for IC50: curve of first compound; for viability, T/C: stronger effect = lower value
From the text: Multicellular complex tumor spheroid response to aryl hydrocarbon receptor antagonists in combination with a variety of drugs and investigational agents in selected tumor cell lines
The current study was undertaken to assess response to aryl hydrocarbon receptor antagonists in combination with standard-of-care drugs and investigational agents in solid tumor complex spheroid models. Complex spheroids include a stromal component modeled by human endothelial cells (HUVEC) and fibroblasts modeled by human mesenchymal stem cells (MSCs). The concentration ranges selected for each drug and investigational agent were based upon clinically achievable concentrations if the clinical Cmax of the agent was known.
Compounds. The drugs and investigational agents: BAY 2416964 (NSC825713), GNF351 (NSC835774), CH-223191 (NSC835775), CPI-455 (NSC825282), aza-TdCyd (NSC777586), decitabine (NSC127716), belinostat (NSC758774), entinostat (NSC756642), pevonedistat (NSC761192), tazemetostat (NSC777109), talazoparib (NSC765396), olaparib (NSC753686), selinexor (NSC780203), nedisertib (M3814, NSC802822), bortezomib (NSC756655), venetoclax (NSC766270), doxorubicin (NSC123127), elimusertib (BAY189344, NSC800525), ceralasertib (AZD6738, NSC777638), TAK-243 (NSC785004), alisertib (NSC759677), etoposide (NSC141540), topotecan (NSC609699), eribulin (NSC707389), gemcitabine (NSC613327), carboplatin (NSC241240), cisplatin (NSC119875), and SN-38 (NSC673596) were obtained from the National Cancer Institute (NCI) Developmental Therapeutics Program Chemical Repository (32). The FDA-approved anticancer drug set is available from the Developmental Therapeutics Program at https://dtp.cancer.gov/organization/dscb/obtaining/available plates.htm. […] The stock solutions were prepared in dimethyl sulfoxide (DMSO, Sigma-Aldrich, St. Louis, MO, cat. D2650), except for the platinum compounds which were prepared in saline (Quality Biological, Gaithersburg, MD, cat. 114-055-101), at 800-fold the tested concentration and stored at -70 degrees C prior to their use. All drugs and investigational agents were tested over a range starting from a high concentration at or near the clinical Cmax and decreasing in half-log increments. If the clinical Cmax for an agent had not been determined, the highest concentration tested was 10 microM (Table 1).
Cell Culture. All cells were maintained in an incubator at 37 degrees C and 5% CO2 with 95% humidity. The PDC lines were cultured according to standard operating procedures established by the NCI PDMR (https://pdmr.cancer.gov). Briefly, all PDCs were thawed and cultured in Matrigel-coated flasks prepared with a working solution of 1X Ham's F-12 nutrient mix, without supplementation (Invitrogen, Waltham, MA, cat. 11765054), 100 U/mL penicillin-streptomycin (Invitrogen, cat. 15140122), and 2.5% Matrigel (Corning Inc., Corning, NY, cat. 354248) for the first three passages. All PDCs were cultured in complete DMEM/F-12 media containing advanced DMEM/F-12 (Invitrogen, cat. 12634028), 4.9% defined fetal bovine serum, heat inactivated (HyClone Laboratories Inc., Logan, UT, cat. SH30070.03HI), 389 ng/mL hydrocortisone (Sigma-Aldrich, cat. H4001), 9.7 ng/mL human EGF recombinant protein (Invitrogen, cat. PHG0313), 23.4 microg/mL adenine (Sigma-Aldrich, cat. A2786), 97.3 U/mL penicillin-streptomycin (Invitrogen, cat. 15140122), 1.9 mM L-glutamine (Invitrogen, cat. 25030081), and 9.7 microM Y-27632 dihydrochloride (Tocris Bioscience, Bristol, United Kingdom, cat. 1254). The PDCs were cultured in complete DMEM/F12 media without 10 microM Y-27632 dihydrochloride for at least two passages prior to the screen. The established cell lines NCI-H1341 and […] were cultured in DMEM/F-12, HEPES (Invitrogen, cat. 11330032), 5% defined fetal bovine serum (HyClone Laboratories Inc., cat. SH30070.03), ITS premix universal culture supplement [insulin (5 microg/mL), transferrin (5 microg/mL), and selenious acid (5 ng/mL)] […]

[1] = second compound 0.1 µM, first compound 0.0316 µM
[2] = second compound 0.1 µM, first compound 0.1 µM
[3] = second compound 0.1 µM, first compound 0.316 µM
[4] = second compound 0.1 µM, first compound 1 µM
[5] = second compound 0.316 µM, first compound 0.0316 µM
[6] = second compound 0.316 µM, first compound 0.1 µM
[7] = second compound 0.316 µM, first compound 0.316 µM
[8] = second compound 0.316 µM, first compound 1 µM
[9] = second compound 1 µM, first compound 0.0316 µM
[10] = second compound 1 µM, first compound 0.1 µM
[11] = second compound 1 µM, first compound 0.316 µM
[12] = second compound 1 µM, first compound 1 µM
[13] = second compound 3.16 µM, first compound 0.0316 µM
[14] = second compound 3.16 µM, first compound 0.1 µM
[15] = second compound 3.16 µM, first compound 0.316 µM
[16] = second compound 3.16 µM, first compound 1 µM
[17] = second compound 10 µM, first compound 0.0316 µM
[18] = second compound 10 µM, first compound 0.1 µM
[19] = second compound 10 µM, first compound 0.316 µM
[20] = second compound 10 µM, first compound 1 µM

Nc1ncn(C2CC(O)C(CO)O2)c(=O)n1 (stereo not given) + CC(CO)NC(=O)c1cc(-c2ccc(Cl)cc2)nn(-c2cnn(C)c2)c1=O
IC50 (second compound 0.1 µM): > 1000 nM | IC50 (second compound 0.316 µM): > 1000 nM | IC50 (second compound 1 µM): > 1000 nM | IC50 (second compound 3.16 µM): > 1000 nM | IC50 (second compound 10 µM): > 1000 nM | viability, T/C (second compound 0.1 µM, first compound 0.00316 µM): 112% | viability, T/C (second compound 0.1 µM, first compound 0.01 µM): 117% | viability, T/C [1]: 105% | viability, T/C [2]: 106% | viability, T/C [3]: 120% | viability, T/C [4]: 126% | viability, T/C (second compound 0.316 µM, first compound 0.00316 µM): 107% | viability, T/C (second compound 0.316 µM, first compound 0.01 µM): 116% | viability, T/C [5]: 114% | viability, T/C [6]: 107% | viability, T/C [7]: 114% | viability, T/C [8]: 120% | viability, T/C (second compound 1 µM, first compound 0.00316 µM): 120% | viability, T/C (second compound 1 µM, first compound 0.01 µM): 118% | viability, T/C [9]: 128% | viability, T/C [10]: 108% | viability, T/C [11]: 110% | viability, T/C [12]: 115% | viability, T/C (second compound 3.16 µM, first compound 0.00316 µM): 126% | viability, T/C (second compound 3.16 µM, first compound 0.01 µM): 130% | viability, T/C [13]: 120% | viability, T/C [14]: 104% | viability, T/C [15]: 121% | viability, T/C [16]: 115% | viability, T/C (second compound 10 µM, first compound 0.00316 µM): 141% | viability, T/C (second compound 10 µM, first compound 0.01 µM): 119% | viability, T/C [17]: 137% | viability, T/C [18]: 114% | viability, T/C [19]: 133% | viability, T/C [20]: 116%

CC(C)CC(NC(=O)C(Cc1ccccc1)NC(=O)c1cnccn1)B(O)O (stereo not given) + CC(CO)NC(=O)c1cc(-c2ccc(Cl)cc2)nn(-c2cnn(C)c2)c1=O
IC50 (second compound 0.1 µM): 7.64 nM | IC50 (second compound 0.316 µM): 8.07 nM | IC50 (second compound 1 µM): 8.7 nM | IC50 (second compound 3.16 µM): 10.6 nM | IC50 (second compound 10 µM): 8.75 nM | viability, T/C (second compound 0.1 µM, first compound 0.000949 µM): 108% | viability, T/C (second compound 0.1 µM, first compound 0.003 µM): 106% | viability, T/C (second compound 0.1 µM, first compound 0.00949 µM): 37% | viability, T/C (second compound 0.1 µM, first compound 0.03 µM): 3.54% | viability, T/C (second compound 0.1 µM, first compound 0.0949 µM): 2.43% | viability, T/C (second compound 0.1 µM, first compound 0.3 µM): 2.49% | viability, T/C (second compound 0.316 µM, first compound 0.000949 µM): 106% | viability, T/C (second compound 0.316 µM, first compound 0.003 µM): 101% | viability, T/C (second compound 0.316 µM, first compound 0.00949 µM): 41.8% | viability, T/C (second compound 0.316 µM, first compound 0.03 µM): 2.17% | viability, T/C (second compound 0.316 µM, first compound 0.0949 µM): 2.62% | viability, T/C (second compound 0.316 µM, first compound 0.3 µM): 1.45% | viability, T/C (second compound 1 µM, first compound 0.000949 µM): 109% | viability, T/C (second compound 1 µM, first compound 0.003 µM): 103% | viability, T/C (second compound 1 µM, first compound 0.00949 µM): 45.8% | viability, T/C (second compound 1 µM, first compound 0.03 µM): 3.07% | viability, T/C (second compound 1 µM, first compound 0.0949 µM): 1.88% | viability, T/C (second compound 1 µM, first compound 0.3 µM): 2.1% | viability, T/C (second compound 3.16 µM, first compound 0.000949 µM): 118% | viability, T/C (second compound 3.16 µM, first compound 0.003 µM): 113% | viability, T/C (second compound 3.16 µM, first compound 0.00949 µM): 54.9% | viability, T/C (second compound 3.16 µM, first compound 0.03 µM): 3.25% | viability, T/C (second compound 3.16 µM, first compound 0.0949 µM): 1.7% | viability, T/C (second compound 3.16 µM, first compound 0.3 µM): 1.74% | viability, T/C (second compound 10 µM, first compound 0.000949 µM): 112% | viability, T/C (second compound 10 µM, first compound 0.003 µM): 116% | viability, T/C (second compound 10 µM, first compound 0.00949 µM): 45.1% | viability, T/C (second compound 10 µM, first compound 0.03 µM): 2.87% | viability, T/C (second compound 10 µM, first compound 0.0949 µM): 2.23% | viability, T/C (second compound 10 µM, first compound 0.3 µM): 2.03%

COc1cc(Nc2ncc3c(n2)-c2ccc(Cl)cc2C(c2c(F)cccc2OC)=NC3)ccc1C(=O)O + CC(CO)NC(=O)c1cc(-c2ccc(Cl)cc2)nn(-c2cnn(C)c2)c1=O
IC50 (second compound 0.1 µM): > 10000 nM | IC50 (second compound 0.316 µM): > 10000 nM | IC50 (second compound 1 µM): > 10000 nM | IC50 (second compound 3.16 µM): > 10000 nM | IC50 (second compound 10 µM): > 10000 nM | viability, T/C [1]: 91.5% | viability, T/C [2]: 107% | viability, T/C [3]: 116% | viability, T/C [4]: 112% | viability, T/C (second compound 0.1 µM, first compound 3.16 µM): 111% | viability, T/C (second compound 0.1 µM, first compound 10 µM): 138% | viability, T/C [5]: 103% | viability, T/C [6]: 106% | viability, T/C [7]: 119% | viability, T/C [8]: 113% | viability, T/C (second compound 0.316 µM, first compound 3.16 µM): 127% | viability, T/C (second compound 0.316 µM, first compound 10 µM): 116% | viability, T/C [9]: 101% | viability, T/C [10]: 98.9% | viability, T/C [11]: 112% | viability, T/C [12]: 111% | viability, T/C (second compound 1 µM, first compound 3.16 µM): 136% | viability, T/C (second compound 1 µM, first compound 10 µM): 134% | viability, T/C [13]: 107% | viability, T/C [14]: 108% | viability, T/C [15]: 121% | viability, T/C [16]: 115% | viability, T/C (second compound 3.16 µM, first compound 3.16 µM): 130% | viability, T/C (second compound 3.16 µM, first compound 10 µM): 132% | viability, T/C [17]: 107% | viability, T/C [18]: 109% | viability, T/C [19]: 126% | viability, T/C [20]: 122% | viability, T/C (second compound 10 µM, first compound 3.16 µM): 127% | viability, T/C (second compound 10 µM, first compound 10 µM): 131%
